What was measured:
Type in all cases: cell-based
[1] = test system: MCF-7 (human breast cancer cell line); assay: MTT assay, in vitro anticancer activity, MCF-7; conditions: MCF7, 48 h treatment
Protocol: (§1) The synthesized compounds 7(a–l) were evaluated for their in vitro anticancer activity against MCF-7 (human breast cancer cell line), HeLa (human cervical cancer cell line), SKMEL-2 (human melanoma cancer cell line) and HL-60 (human leukemia cancer cell line) cancer cell lines, as shown in Table 2. […] The GI50 values (the concentration required to achieve a growth inhibition of 50%) for the synthesized compounds were determined by MTT assay method. The in vitro anticancer evaluation results and GI50 values were listed in Table 2, and the well-known anticancer drug Adriamycin was used as positive control.
(§2) The synthesized compounds 7(a–l) were evaluated for their in vitro anticancer activity against MCF-7 (human breast cancer cell line), HeLa (human cervical cancer cell line), SKMEL-2 (human melanoma cancer cell line) and HL-60 (human leukemia cancer cell line) cancer cell lines. The GI50 values (concentration required to Growth inhibition of 50%) for the synthesized compounds were determined using the MTT assays method.
(§3) The stock solutions of test compounds were prepared in DMSO. After 24 h incubation, different concentrations (2, 4, 6, 8 µM) of compounds, made by serial dilution in culture medium, were added in 48 h incubation. The final concentration of DMSO was 0.01% in each well. […] The cell growth was determined using MTT (3-(4,5-dimethylthiazol-2-yl)-2,5-diphenyl tetrazolium bromide (Sigma, St. Louis, MO, USA) reduction assay, which is based on the ability of viable cells to reduce a soluble yellow tetrazolium salt to blue formazan crystal. Briefly, after 48 h of treatments, the 10 µl of MTT dye, prepared in phosphate buffered saline (PBS) was added to all wells. The plates were then incubated for 4 h at 37 °C. Supernatant from each well was carefully removed, formazon crystals were dissolved in 100 µL of DMSO and absorbance at 540 nm wavelength was recorded and each concentration was tested in threefold. The GI50 values were determined as concentration of compounds that inhibited cancer cell growth by 50%.

[2] = test system: SKMEL-2 (human melanoma cancer cell line); assay: MTT assay, in vitro anticancer activity, SKMEL-2; conditions: SK-MEL-2, 48 h treatment
Protocol: as §1, §2, §3

[3] = test system: HL-60 (human leukemia cancer cell line); assay: MTT assay, in vitro anticancer activity, HL-60; conditions: 48 h treatment
Protocol: as §1, §2, §3

[4] = MTT assay, cytotoxicity on non-tumorigenic cells, MCF-10A; conditions: human, MCF-10A non-tumorigenic breast epithelial cells; MTT, MCF-10A normal breast epithelial cells
Protocol: [The procedure below names another cell line; the source lists this cell line under the same test.] as §1, §3

[5] = test system: HeLa (human cervical cancer cell line); assay: MTT assay, in vitro anticancer activity, HeLa; conditions: 48 h treatment
Protocol: as §1, §2, §3

[6] = test system: MCF-10A normal breast epithelial cell lines; assay: MTT assay, cytotoxicity on non-tumorigenic cells, MCF-10A; conditions: MCF-7 vs MCF-10A GI50
Protocol: [The procedure below names another cell line; the source lists this cell line under the same test.] as §1, §3

SMILES	GI50 [1] [µM]	GI50 [2] [µM]	GI50 [3] [µM]	GI50 [5] [µM]	GI50 at 48 h [4] [µM]	selectivity for MCF-7 cancer cell lines in comparison to MCF-10A normal breast epithelial cell lines [6]
COc1cc(/C=N/c2nnc(CNC(=O)c3ccccc3)s2)ccc1O [Compound 7e, (E)-N-((5-(4-Hydroxy-3-methoxybenzylideneamino)-1,3,4-thiadiazol-2-yl)methyl) benzamide]	35.2	28.1	39.6	46.8	–	–
COc1cc(/C=N/c2nnc(CNC(=O)c3ccccc3)s2)cc(OC)c1OC [Compound 7i, (E)-N-((5-(3,4,5-Trimethoxybenzylideneamino)-1,3,4-thiadiazol-2-yl)methyl) benzamide]	49	52.6	45.8	78	–	–
CCOc1cc(/C=N/c2nnc(CNC(=O)c3ccccc3)s2)ccc1O [Compound 7f, (E)-N-((5-(3-Ethoxy-4-hydroxybenzylideneamino)-1,3,4-thiadiazol-2-yl)methyl) benzamide]	38.4	30	37.5	49.2	–	–
COc1ccc(/C=N/c2nnc(CNC(=O)c3ccccc3)s2)cc1OC [Compound 7h, (E)-N-((5-(3,4-Dimethoxybenzylideneamino)-1,3,4-thiadiazol-2-yl)methyl) benzamide]	46.2	49.1	48.2	71.7	–	–
O=C(NCc1nnc(/N=C/c2ccccc2O)s1)c1ccccc1 [Compound 7d, (E)-N-((5-(2-Hydroxybenzylideneamino)-1,3,4-thiadiazol-2-yl)methyl) benzamide]	36.7	34	40.2	52.4	–	–
COc1ccc(/C=N/c2nnc(CNC(=O)c3ccccc3)s2)cc1 [Compound 7g, (E)-N-((5-(4-Methoxybenzylideneamino)-1,3,4-thiadiazol-2-yl)methyl) benzamide]	41	46.4	42.4	66.1	–	–
COc1cc(OC)c(OC)cc1/C=N/c1nnc(CNC(=O)c2ccccc2)s1 [Compound 7j, (E)-N-((5-(2,4,5-Trimethoxybenzylideneamino)-1,3,4-thiadiazol-2-yl)methyl) benzamide]	51.4	55.7	49.9	78.8	–	–

The next compounds have a lower GI50 [1] than those just listed; values first:

GI50 [1] [µM]	GI50 [2] [µM]	GI50 [3] [µM]	GI50 [5] [µM]	SMILES	GI50 at 48 h [4] [µM]	selectivity for MCF-7 cancer cell lines in comparison to MCF-10A normal breast epithelial cell lines [6]
22.9	21.9	21.7	32.8	O=C(NCc1nnc(/N=C/c2ccc(Cl)cc2)s1)c1ccccc1 [Compound 7a, (E)-N-((5-(4-Chlorobenzylideneamino)-1,3,4-thiadiazol-2-yl)methyl) benzamide]	> 100	–
11.7	19.6	35.5	23.8	O=C(NCc1nnc(/N=C/c2ccco2)s1)c1ccccc1 [Compound 7k, (E)-N-((5-(Furan-2-ylmethyleneamino)-1,3,4-thiadiazol-2-yl)methyl) benzamide]	> 100	–
< 10	< 10	< 10	< 10	COc1cccc2c1C(=O)c1c(O)c3c(c(O)c1C2=O)C[C@@](O)(C(=O)CO)C[C@@H]3O[C@H]1C[C@H](N)[C@H](O)[C@H](C)O1 [ADR, Adriamycin, reference compound]	–	–
28.7	22.9	28.2	39	O=C(NCc1nnc(/N=C/c2ccc(Cl)cc2Cl)s1)c1ccccc1 [Compound 7b, (E)-N-((5-(2,4-Dichlorobenzylideneamino)-1,3,4-thiadiazol-2-yl)methyl) benzamide]	86.1	three
19	22	29.9	28.8	O=C(NCc1nnc(/N=C/c2cccs2)s1)c1ccccc1 [Compound 7l, (E)-N-((5-(Thiophen-2-ylmethyleneamino)-1,3,4-thiadiazol-2-yl)methyl) benzamide]	> 100	–
32.4	27.5	33.3	41.1	O=C(NCc1nnc(/N=C/c2ccc(O)cc2)s1)c1ccccc1 [Compound 7c, (E)-N-((5-(4-Hydroxybenzylideneamino)-1,3,4-thiadiazol-2-yl)methyl) benzamide]	–	–

Reference: publication PMC6152631, “Microwave-Assisted Facile Synthesis, Anticancer Evaluation and Docking Study of N-((5-(Substituted methylene amino)-1,3,4-thiadiazol-2-yl)methyl) Benzamide Derivatives” (Molecules : A Journal of Synthetic Chemistry and Natural …, 2017)
